Reference: publication PMC11078827, “Characterization and functional evidence for Orf2 of Streptomyces sp. 139 as a novel dipeptidase E” (Applied Microbiology and Biotechnology, 2024)

How the values were obtained:
Orf2 [1] = target: T1, Orf2 (Streptomyces tendae, UniProt A0ABX5ZPB3, D198A); assay: absorbance at […] nm, activity assay; format: biochemical; settings: 50 mM imidazole pH 7.5, 40 °C; substrate of the standard assay, not named again for the mutants
T1 construct: gene F3L20_11885; full-length orf2 (744 bp) in pET30a(+), His-tagged (mutants in pET28a), E. coli BL21(DE3), Ni-NTA

Orf2 [2] = target: T2, Orf2 (Streptomyces tendae, UniProt A0ABX5ZPB3, D147A); assay: absorbance at […] nm, activity assay; format: biochemical; settings: 50 mM imidazole pH 7.5, 40 °C; substrate of the standard assay, not named again for the mutants
T2 construct: gene F3L20_11885; full-length orf2 (744 bp) in pET30a(+), His-tagged (mutants in pET28a), E. coli BL21(DE3), Ni-NTA

Orf2 [3] = target: T3, Orf2 (Streptomyces tendae, UniProt A0ABX5ZPB3, S134A); assay: absorbance at […] nm, activity assay; format: biochemical; settings: 50 mM imidazole pH 7.5, 40 °C; substrate of the standard assay, not named again for the mutants
T3 construct: gene F3L20_11885; full-length orf2 (744 bp) in pET30a(+), His-tagged (mutants in pET28a), E. coli BL21(DE3), Ni-NTA

Orf2 [4] = target: T4, Orf2 (Streptomyces tendae, UniProt A0ABX5ZPB3, H170A); assay: absorbance at […] nm, activity assay; format: biochemical; settings: 50 mM imidazole pH 7.5, 40 °C; substrate of the standard assay, not named again for the mutants
T4 construct: gene F3L20_11885; full-length orf2 (744 bp) in pET30a(+), His-tagged (mutants in pET28a), E. coli BL21(DE3), Ni-NTA

purified protein = substrate: N[C@@H](CC(=O)O)C(=O)Nc1ccc([N+](=O)[O-])cc1; assay: purified protein; format: biochemical, Streptomyces tendae; settings: 50 mM imidazole pH 7.5, 40 °C, 10 min, substrate 3.91-500 μM, hydrolysis of chromogenic substrate

T3 sequence (A0ABX5ZPB3 entry or part of it S134A): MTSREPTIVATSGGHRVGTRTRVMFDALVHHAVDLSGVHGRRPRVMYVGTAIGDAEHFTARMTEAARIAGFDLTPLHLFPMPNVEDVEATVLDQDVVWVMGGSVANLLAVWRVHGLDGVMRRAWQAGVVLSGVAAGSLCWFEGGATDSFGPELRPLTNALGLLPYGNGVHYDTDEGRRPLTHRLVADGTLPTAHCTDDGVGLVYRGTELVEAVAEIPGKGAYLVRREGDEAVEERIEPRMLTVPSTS
T1 sequence (A0ABX5ZPB3 entry or part of it D198A): as the sequence (A0ABX5ZPB3 entry or part of it S134A) above, with A134S, D198A counted along it
T2 sequence (A0ABX5ZPB3 entry or part of it D147A): as the sequence (A0ABX5ZPB3 entry or part of it S134A) above, with A134S, D147A counted along it
T4 sequence (A0ABX5ZPB3 entry or part of it H170A): as the sequence (A0ABX5ZPB3 entry or part of it S134A) above, with A134S, H170A counted along it

## N[C@@H](CC(=O)O)C(=O)Nc1ccc([N+](=O)[O-])cc1 [Asp-ρNA]
Orf2 [1]
  absorbance at 405 nm, activity assay: all of these mutant proteins lost their activity (data not shown)
Orf2 [2]
  absorbance at 405 nm, activity assay: all of these mutant proteins lost their activity (data not shown)
Orf2 [3]
  absorbance at 405 nm, activity assay: all of these mutant proteins lost their activity (data not shown)
Orf2 [4]
  absorbance at 405 nm, activity assay: all of these mutant proteins lost their activity (data not shown)

B1: Orf2 (Streptomyces tendae) (protein)
chain: MTSREPTIVATSGGHRVGTRTRVMFDALVHHAVDLSGVHGRRPRVMYVGTAIGDAEHFTARMTEAARIAGFDLTPLHLFPMPNVEDVEATVLDQDVVWVMGGSVANLLAVWRVHGLDGVMRRAWQAGVVLSGVSAGSLCWFEGGATDSFGPELRPLTNALGLLPYGNGVHYDTDEGRRPLTHRLVADGTLPTAHCTDDGVGLVYRGTELVEAVAEIPGKGAYLVRREGDEAVEERIEPRMLTVPSTS
notes: full-length orf2 (744 bp) in pET30a(+), His-tagged (mutants in pET28a), E. coli BL21(DE3), Ni-NTA
Purified protein
  Km: 1709 µM
  kcat: 5.628 s⁻¹
